Laboratory results as given in patent publication US9061997B2, “Quinolinone derivatives” (Centre National de la Recherche Scientifique, priority 2010, dated 2015).
Read-outs that look alike come from different tables or passages of the source.

What was measured:
[1] = test system: C3H10T1/2 cells; test: Detection of alkaline phosphatase by histochemistry (differentiation of C3H10T1/2 cells); assay type: cell-based; conditions: 10 μM, 6 days; intensities compound 4>compound 1>compound 8>compound 6; no DMSO-treated cell labeled
Experimental: (§1) The effect of the compounds of general formula (I) in accordance with the invention on the stimulation of osteogenesis was determined in vitro by analyzing the differentiation of the C3H10T1/2 pluripotent mesenchymal cell line.
(§2) The test compounds of formula (I) were dissolved in dimethyl sulfoxide (DMSO) to a concentration of 2.5 mM, and then stored at a temperature of −20° C. until use.
(§3) The C3H10T1/2 pluripotent fibroblast cell line (ATCC CCL 226) was cultured under the conditions recommended by the ATCC in DMEM culture medium supplemented with 10% of fetal calf serum at a temperature of 37° C. under an atmosphere at 5% CO2. 24 hours after seeding, the cells were stimulated for 6 days in the presence of the compounds of general formula (I) directly diluted in the culture medium. The activation by these compounds causes differentiation of the cell line to the osteoblast lineage and enables the latter to express alkaline phosphatase. Said alkaline phosphatase is then detected by histochemistry or enzymatic assay.
For this experiment, the cells are cultured in 6-well plates containing a glass cover slip treated for 1H with 0.05 mg/ml poly-D-lysine. The C3H10T1/2 cells are seeded at a density of 150 000 cells per well. The compounds were applied at a concentration of 10 μM. the Sigma staining kit (85L-3R) was used according to the protocol described. Briefly, after fixing the cells for 30 seconds with a solution of citrate/acetone (2-3) and then rinsing with double-distilled water, the staining is carried out for 30 min in the presence of a solution of Fast-Violet/Naphthol in the dark. The cover slips are then rinsed thoroughly with double-distilled water and then mounted in aqueous medium before being photographed on a DMRXA2 microscope (Leica Microsystems). The cells expressing alkaline phosphatase are stained red.

[2] = test system: C3H10T1/2 cells; test: Enzymatic assay of alkaline phosphatase in 96-well plates (differentiation of C3H10T1/2 cells); assay type: cell-based; conditions: for EC50 / Emax: Mus musculus
Experimental: as §1, §2, §3
The C3H10T1/2 cells were seeded onto 96-well plates at a density of 5×10^3 cells per well. The compounds were applied at increasing concentrations ranging from 10 nM to 10 μM. The plates were then incubated for 6 days and the assays were then carried out in quadruplicate according to the methods previously described (Chen et al. 2002; Frank-Kamenetsky et al. 2002).
The cells were washed in cold phosphate buffer (PBS) and then lysed by sonication at 4° C. in 50 μl of solution containing 0.9% of NaCl and 0.2% of Triton X-100. The alkaline phosphatase activity in the resulting lysates was then measured according to the method described by Pepinsky et al. (Pepinsky et al. 1998). After the addition of 100 μl of reaction buffer (200 mM Tris-HCl; pH 10.5; 0.4 M of 2-amino-2-methylpropanol and 8 mM of MgCl2) and of 50 μl of substrate (4 mM of disodium p-nitrophenyl phosphate), the lysates were incubated at 37° C. for 60 min, and then the optical density (OD) was measured at a wavelength of 415 nm. By way of comparison, the activity of the SAG compound, which activates osteogenesis by acting on the Hedgehog pathway, was tested under the same conditions. The GraphPad Prism 4° software was used to plot the curves and to determine the effective concentrations 50 (EC50).

[3] = C3H 10T1/2, 144 h, 6 days of stimulation, 10 nM to 10 μM, OD 415 nm, mean of 2 to 5 independent experiments, read-out: EC50 on the differentiation of C3H10T1/2 cells measured via alkaline phosphatase activity
[4] = C3H 10T1/2, 144 h, 6 days of stimulation, relative to compound 1 in the same experiment, mean of 2 to 5 independent experiments, read-out: Maximum stimulation, % of maximum activation of compound 1
[5] = dose-response curve produced in parallel with compound 1

Question: How did the “Expression of alkaline phosphatase detected by histochemical staining (number of cells labeled)” value (from here on “Expression”) [1] turn out when `CCCCCCn1c(=O)c(C(=O)Nc2ccc(C(=O)OCCC)cc2)c(O)c2ccccc21` [Compound 1, propyl 4-(1-hexyl-4-hydroxy-2-oxo-1,2-dihydroquinoline-3-carboxamido)benzoate] was run?
Answer: increase in the number of cells labeled

Question: And the EC50 [2, 3]?
Answer: 1300 nM

Question: What about the Emax [2, 4] of the same compound?
Answer: 100%

Question: Which EC50 [2, 3] does the source give for `CCOC(=O)c1ccc(NC(=O)c2c(O)c3ccccc3n(Cc3ccccc3)c2=O)cc1` [Compound 2, ethyl 4-(1-benzyl-4-hydroxy-2-oxo-1,2-dihydroquinoline-3-carboxamido)benzoate] here?
Answer: > 3000 nM

Question: And the Emax [2, 4]?
Answer: 4%

Question: `CCCCCCn1c(=O)c(C(=O)Nc2ccc(C(=O)OCC)cc2)c(O)c2ccccc21` [Compound 3, ethyl 4-(1-hexyl-4-hydroxy-2-oxo-1,2-dihydroquinoline-3-carboxamido)benzoate] was tested. Which EC50 [2, 3] did it give?
Answer: 3600 nM

Question: What about the Emax [2, 4] of the same compound?
Answer: 66%

Question: For `CCCCCCn1c(=O)c(C(=O)Nc2ccc(C(=O)O)cc2)c(O)c2ccccc21` [Compound 4, 4-(1-hexyl-4-hydroxy-2-oxo-1,2-dihydroquinoline-3-carboxamido)benzoic acid], which “Expression” value [1] is on record?
Answer: increase in the number of cells labeled

Question: And the EC50 [2, 3]?
Answer: 600 nM

Question: And the EC50 ([2]; C3H 10T1/2, 144 h, 6 days of stimulation, alkaline phosphatase activity, read-out: Affinity (activation of C3H10T1/2 cell differentiation))?
Answer: 600 nM

Question: And the Emax [2, 4]?
Answer: 124%

Question: What about the Emax ([2]; C3H 10T1/2, excess over compound 1, read-out: Maximum stimulation greater than that of compound 1) of the same compound?
Answer: 20%

Question: Which EC50 [2, 3] does the source give for `CCCCCCn1c(=O)c(C(=O)Nc2ccc(C(=O)OCCCC)cc2)c(O)c2ccccc21` [Compound 5, butyl 4-(1-hexyl-4-hydroxy-2-oxo-1,2-dihydroquinoline-3-carboxamido)benzoate] here?
Answer: 1500 nM

Question: And the Emax [2, 4]?
Answer: 91%

Question: How did the “Expression” value [1] turn out when `CCCCCCn1c(=O)c(C(=O)Nc2ccc(C(=O)OC(C)(C)C)cc2)c(O)c2ccccc21` [Compound 6, tert-butyl 4-(1-hexyl-4-hydroxy-2-oxo-1,2-dihydroquinoline-3-carboxamido)benzoate] was run?
Answer: increase in the number of cells labeled

Question: What about the EC50 [2, 3] of the same compound?
Answer: 3100 nM

Question: And the Emax [2, 4]?
Answer: 62%

Question: With `CCCCCCn1c(=O)c(C(=O)Nc2ccc(C(=O)OCc3ccccc3)cc2)c(O)c2ccccc21` [Compound 7, benzyl 4-(1-hexyl-4-hydroxy-2-oxo-1,2-dihydroquinoline-3-carboxamido)benzoate] as the compound, how does the EC50 [2, 3] read?
Answer: 2000 nM

Question: And the Emax [2, 4]?
Answer: 47%

Question: `CCCCCCn1c(=O)c(C(=O)Nc2ccc(C(=O)NCCCC)cc2)c(O)c2ccccc21` [Compound 8, N-(4-(butylcarbamoyl)phenyl)-1-hexyl-4-hydroxy-2-oxo-1,2-dihydroquinoline-3-carboxamide] was tested. Which “Expression” value [1] did it give?
Answer: increase in the number of cells labeled

Question: And the EC50 [2, 3]?
Answer: 5800 nM

Question: And the Emax [2, 4]?
Answer: 94%

Question: With `CCCCCCn1c(=O)c(C(=O)Nc2ccc(C(=O)OC(C)C)cc2)c(O)c2ccccc21` [Compound 9, isopropyl 4-(1-hexyl-4-hydroxy-2-oxo-1,2-dihydroquinoline-3-carboxamido)benzoate] as the compound, how does the EC50 [2, 3] read?
Answer: 6500 nM

Question: And the Emax [2, 4]?
Answer: 33%

Question: Which results are given for `CNC1CCC(N(Cc2cccc(-c3ccncc3)c2)C(=O)c2sc3ccccc3c2Cl)CC1` (centres unmarked) [SAG, reference compound]?
Answer: Affinity compared with compound 1 (FIG. 3) [2, 5]: similar; Maximum stimulation compared with compound 1 (FIG. 3) [2, 5]: lower maximum stimulation than compound 1
